Experimental data as given in US9896711B2, “Fluorogenic or fluorophoric compounds and uses thereof” (3M INNOVATIVE PROPERTIES COMPANY, priority 2011, dated 2018).
Read-outs that look alike come from different tables or passages of the source.

How the values were obtained:
physchem = settings: 100 mM phosphate buffer in a 96 well plate, pH 8
Procedure: A 96 well plate was prepared with each well containing 100 microliters of 100 mM phosphate buffer at pH values ranging from 8.0 to 2.5 in 0.5 unit increments. […] A set of 10× diluted wells were also prepared to eliminate artifacts due to self-quenching of the fluorophore at high concentrations. The 10× dilutions were prepared by diluting the 1 mg/mL solution to 0.1 mg/mL in DMSO, and then adding 10 microliters of this solution to 100 microliters of 100 mM phosphate buffer in each of the wells.
The absorption spectra from 250 nanometers (nm) to 500 nm were recorded using a SPECTRAMAX M5 fluorescence plate reader (available from Molecular Devices of Sunnyvale Calif.) for each pH value.
Emission spectra at wavelengths from 410 nm to 700 nm were also recorded on the SPECTRAMAX M5 fluorescence plate reader at an excitation wavelength of 400 nm over the range of pH values in the plate. […]
The absorption at 400 nm and emission at 450 nm over the range of pH values were recorded on a SPECTRAMAX M5 fluorescence plate reader. […]
The absorption spectra from 300 nanometers (nm) to 700 nm were recorded for the 10× diluted wells using a SPECTRAMAX M5 fluorescence plate reader (available from Molecular Devices of Sunnyvale Calif.) for each pH value. […]

[1] = see Bioorg. and Med. Chem. Lett., 8, 3107-3110 (1998); cited from earlier work
β-D-galactosidase = test: Emission of fluorogenic galactoside at pH 2.5 to 8.0 in the presence and absence of β-D-galactosidase; type: biochemical; settings: FIG. 6; emission 495 nm, excitation 430 nm, pH 5 to 7, with β-D-galactosidase; about two-thirds of sample fluorinated
Procedure: Absorbance and emission spectra for the first fraction of FTU-gal was recorded at pH 2.5 to 8.0 in the presence and absence of β-D-galactosidase, and then compared to spectra of TU-gal (prepared according to U.S. Pat. No. 6,566,508 (Bentsen et al.) under the same conditions.
About two-thirds of the sample tested was fluorinated.

[2] = tested on: Escherichia coli (ATCC 29425); test: Detection of microbial colonies on bacterial culture plates by fluorescence imaging; type: cell-based; settings: for time after which colonies were apparent in the images: Plates 8-1 and C-1, 200 nM, with MX-180 particles, about 20° C. to 27° C.; for mean fluorescence intensity of colonies over time: Plates 8-1 and C-1, averaged across 6 colonies, 30 seconds fluorescent illumination
Procedure: A mixture of 50 grams of xanthan gum powder and 50 grams of locust bean gum powder was placed in a 500 mL bottle and shaken manually for about 5 minutes. A cover film was prepared by sprinkling the mixture onto the adhesive of a pressure-sensitive adhesive coated sheet that is commercially available under the trade designation 9795R ADVANCED SEALING TAPE from 3M Company in St. Paul Minn. The adhesive coated sheet was tilted to remove excess powder. The coating weight of the gums was approximately 85 milligrams per 24 square inches (i.e, 0.55 milligrams per square centimeter).
A growth medium mixture was prepared by mixing 22.8 parts of pancreatic digest of casein, 15.9 parts of yeast extract, 45.5 parts of sodium pyruvate, 4.1 parts of dextrose, 9.0 parts of dibasic potassium phosphate, and 2.8 parts of monobasic potassium phosphate. A growth medium broth was prepared by mixing 500 mL of deionized water with 14.78 grams of the growth medium mixture in a beaker using an air motor mixer followed by adding 5 grams of locust bean gum in small increments, and mixing for several minutes. The beaker was covered with foil and the mixture was heated to 80° C., mixed for about 6 minutes, and then allowed to cool for about ten minutes while mixing without heat. The broth was then poured into a sterilized beaker, covered with a plastic bag and refrigerated. The cooled broth was stirred carefully with a spatula to avoid forming air bubbles and then knife coated onto a 24.4 cm wide sheet of 4 mil thick polyethylene terephthalate film that is commercially available under the trade designation MELINEX 453 from DuPont Teijin Films in Hopewell Va. The broth coated film was dried in an oven set at a temperature of 210° C. for about 10 minutes. The dried coating weight was about 1 mg per square centimeter.
A 20.3 centimeter (cm) wide sheet of 4 mil (a mil is equal to 0.001 inches) thick closed cell polystyrene foam (commercially available from American Fuji Seal, Inc. of Bardstown, Ky.) was laminated to a pressure-sensitive adhesive transfer tape on a release liner. The specific transfer tape used has an acrylic pressure-sensitive adhesive and is commercially available from 3M Company (Saint Paul, Minn.) under the trade designation 3M […] ADHESIVE 927. Circular discs measuring 5 cm in diameter were die-cut and removed from the laminate, forming circular openings centered within a 7.6 cm square from one end of 7.6 cm by 10.16 cm rectangle. The liner was removed and the adhesive-coated surface of the polystyrene foam was adhered to the broth coated film to provide a base member having a broth-coated self-supporting substrate and a hydrophobic spacer element (i.e., “foam dam”) adhered to the broth-coated surface of the supporting substrate. Rectangular plates measuring 7.6 cm by 10.16 cm were cut from the laminate, with the circular openings centered within a 7.6 cm square on one end of the 10.16 cm length. The cover film was attached to the base member with the powder coated side facing the foam dam with a double sided pressure-sensitive adhesive tape to form a culture plate.
For Example 8, an indicator solution was prepared by dissolving FTU-gal from Example 6 in DMSO at a 50 mM (millimolar) concentration (Indicator 1). The solution was further diluted 20-fold to provide a 2.5 mM solution (Indicator 2).
For Comparative Example C1, indicator solutions were prepared by dissolving TU-gal in DMSO at a 20 mM concentration (Indicator 3). […]

## CCOC(=O)c1cc2cc(F)c(O)cc2oc1=O [6-FEHC, 6-fluoro-3-ethylcarboxylate-7-hydroxycoumarin]
physchem
  pKa: ~4.5

## CCOC(=O)c1cc2ccc(O)cc2oc1=O [EHC, 3-ethylcarboxylate-7-hydroxycoumarin, reference compound]
physchem
  pKa: ~6.5

## Cc1cc(=O)oc2c(F)c(O)c(F)cc12 [6,8-difluoro-4-methyl-7-hydroxycoumarin]
[1]
  pKa: 4.2

## fluorinated 3-thienylumbelliferone-pyranogalactoside [FTU-gal]
β-D-galactosidase
  enhancement in intensity versus TU that is not fluorinated: more than 2 fold
[2]
  time after which colonies were apparent in the images: 14 h
  mean fluorescence intensity of colonies over time: continued to increase
[2]; Plates 8-1 and C-1, six colonies and six background spots
  signal to noise (background) ratio over time: always higher

## O=c1oc2cc(O[C@@H]3O[C@H](CO)[C@H](O)[C@H](O)[C@H]3O)ccc2cc1-c1cccs1 [TU-gal, 3-thienylumbelliferone-pyanogalactoside, reference compound]
[2]
  time after which colonies were apparent in the images: 14 h
  mean fluorescence intensity of colonies over time: tended to plateau over time
